Laboratory results reported in paper PMC9503778, “Targeted Isolation of Antibiotic Brominated Alkaloids from the Marine Sponge Pseudoceratina durissima Using Virtual Screening and Molecular Networking” (Marine Drugs, 2022).
Several values for one entry are separate records, joined by “and”; a condition that tells them apart may be missing. Identical values can stand only once.

Experiments:
[1] = Cytotoxicity assay (CO-ADD); assay type: cell-based; conditions: human embryonic kidney cells
[2] = system: MRSA (G+) strain ATCC 43300; assay: Antimicrobial growth inhibition (CO-ADD), MRSA; assay type: cell-based, Staphylococcus aureus
Protocol: (§1) Compounds 1−3 and 5−12 were assayed against a selection of medically important pathogenic microorganisms (MRSA, E. coli, K. pneumoniae, A. baumanii, P. aeruginosa, C. albicans, C. neoformans), Table 4. […] To the best of our knowledge this compound had not been tested against any drug resistant strain of Gram-positive bacterium until this study.
(§2) The antimicrobial activity testing was performed by the Community for Antimicrobial Drug Discovery (CO-ADD). Compounds were assayed against a range of both Gram negative and Gram positive bacteria (see Supplementary Materials S3) including methicillin-resistant Staphylococcus aureus (MRSA) (G+), Escherichia coli (G-), Klebsiella pneumoniae (G-), Acinetobacter baumannii (G-), Pseudomonas aeruginosa (G-) together with two species of fungus (Candida albicans and Cryptococcus neoformans).
(§3) S3. Antimicrobial activity testing methodology
(§4) The compounds submitted to CO-ADD were evaluated in duplicate (n = 2) against seven microorganisms (five bacteria and two fungi) at a concentration of 32 µg/mL in a 384-well, non-binding surface plate (NBS) for each bacterial/fungal strain, keeping the final DMSO concentration to a maximum of 1% DMSO. All bacteria were cultured in cation-adjusted Mueller-Hinton broth (CAMHB) at 37 °C overnight. A sample of each culture was then diluted 40-fold in fresh broth and incubated at 37 °C for 1.5-3 h. The resultant mid-log phase cultures were diluted (CFU/mL measured by OD600), then added to each well of the compound containing plates, giving a cell density of 5x10^5 CFU/mL and a total volume of 50 µL. All the plates were covered and incubated at 37 °C for 18 h without shaking. […] Inhibition of bacterial growth was determined measuring absorbance at 600 nm (OD600) using a Tecan M1000 Pro mon-ochromator plate reader. […]
(§5) 2 h. The absorbance was measured using a Biotek Synergy HTX plate reader. The percentage of growth inhibition was calculated for each well, using negative control (medium only) and positive control (bacteria without inhibitors) on the same plate as the references. The significance of inhibition values was determined by modified Z-scores, calculated using the median and MAD of the samples (no controls) on the same plate. Samples with inhibition value above 80% and Z-score above 2.5 for either replicate (n = 2 on different plates) were classed as actives.
(§6) Colistin and vancomycin were used as positive bacterial inhibitor standards for Gram-negative and Gram-positive bac-teria, respectively. Fluconazole was used as a positive fungal inhibitor standard for C. albicans and C. neoformans. The antibiotics were provided in four concentrations, with two above and two below its MIC value, and plated into the first eight wells of column 23 of the 384-well NBS plates. The quality control (QC) of the assays was determined by the antimicrobial controls and the Z’-factor (using positive and negative controls). Each plate was deemed to fulfil the qual- […]
(§7) full growth inhibition at their highest concentration, and no growth inhibition at their lowest concentration. The seven […]
(§8) test microorganisms were Staphylococcus aureus MRSA (ATCC 43300), Escherichia coli (ATCC 25922), Klebsiella pneu-moniae (ATCC 700603), Acinetobacter baumanii (ATCC19606), Pseudomonas aeruginosa (ATCC 27853), Candida albicans (ATCC 90028) and Cryptococcus neoformans var. grubii (H99; ATCC 208821).
(§9) S4. Anthelmintic activity testing methodology
(§10) Dose-response evaluations were carried out to estimate the half-maximal inhibitory concentrations (IC50 values) for compounds against Haemonchus contortus (Haecon-5 strain) exsheathed third-stage larvae (xL3s). H. contortus were maintained in experimental sheep and procured in accordance with the institutional animal ethics guidelines and the regulations of Australia (permit no. 1714374; University of Melbourne). Immediately prior to use, third-stage larvae (L3s) were exsheathed and sterilised by incubation in 0.15% (v/v) bleach at 38 °C for 20 min, followed by washes in […]

[3] = system: E. Coli (G-) strain ATCC 25922; assay: Antimicrobial growth inhibition (CO-ADD), E. coli; assay type: cell-based, Escherichia coli
Protocol: as §1, §2, §3, §4, §5, §6, §7, §8, §9, §10

[4] = system: A. baumannii (G-) strain ATCC 19606; assay: Antimicrobial growth inhibition (CO-ADD), A. baumannii; assay type: cell-based, Acinetobacter baumannii
Protocol: as §1, §2, §3, §4, §5, §6, §7, §8, §9, §10

[5] = system: C. albicans (yeast) ATCC 90028; assay: Antimicrobial growth inhibition (CO-ADD), C. albicans; assay type: cell-based, Candida albicans
Protocol: as §1, §2, §3
(§11) The compounds submitted to CO-ADD were evaluated in duplicate (n = 2) against seven microorganisms (five bacteria and two fungi) at a concentration of 32 µg/mL in a 384-well, non-binding surface plate (NBS) for each bacterial/fungal strain, keeping the final DMSO concentration to a maximum of 1% DMSO. All bacteria were cultured in cation-adjusted […]
(§12) Fungal strains were cultured for 3 days on Yeast Extract-Peptone Dextrose (YPD) agar at 30 °C. A yeast suspension of 1 x 10^6 to 5 x 10^6 CFU/mL (as determined by OD530) was prepared from five colonies. The suspension was subsequently diluted and added to each well of the compound-containing plates giving a final cell density of fungi suspension of 2.5 x 10^3 CFU/mL and a total volume of 50 µL. All plates were covered and incubated at 35 °C for 24 h without shaking. […]
as §5, §6, §7, §8, §9
Dose-response evaluations were carried out to estimate the half-maximal inhibitory concentrations (IC50 values) for compounds against Haemonchus contortus (Haecon-5 strain) exsheathed third-stage larvae (xL3s). H. contortus were maintained in experimental sheep and procured in accordance with the institutional animal ethics guidelines and the regulations of Australia (permit no. 1714374; University of Melbourne). Immediately prior to use, third-stage larvae (L3s) were exsheathed and sterilised by incubation in 0.15% (v/v) bleach at 38 °C for 20 min, followed by washes in sterile saline at room temperature (22-24 °C). […]

[6] = system: C. neoformans var. grubii strain ATCC 208821; assay: Antimicrobial growth inhibition (CO-ADD), C. neoformans; assay type: cell-based, Cryptococcus neoformans; conditions: 32 µg/mL, duplicate (n = 2) values
Protocol: as §1, §2, §3, §11, §12
as §5, with “Growth inhibition of C. albicans was determined measuring absorbance at 530 nm (OD530), while the growth inhibition of C. neoformans was determined measuring the difference in absorbance between 600 and 570 nm (OD600-570), after the addition of resazurin (0.001% final concentration) and incubation at 35 °C for an additional 2 h.” for “2 h.”
as §6, §7, §8, §9
Dose-response evaluations were carried out to estimate the half-maximal inhibitory concentrations (IC50 values) for compounds against Haemonchus contortus (Haecon-5 strain) exsheathed third-stage larvae (xL3s). H. contortus were maintained in experimental sheep and procured in accordance with the institutional animal ethics guidelines and the […]

[7] = 32 µg/mL, duplicate (n = 2) values

With `COC1=C(Br)[C@H](O)[C@@]2(C=C1Br)CC(C(=O)NCCCOc1c(Br)cc(CCNC(=O)C3=NO[C@]4(C=C(Br)C(OC)=C(Br)[C@@H]4O)C3)cc1Br)=NO2` [Compound 5, 11,17-deoxyfistularin-3] the CC50 [1] was over 32 µg/mL, the “% inhibition MRSA” value [2, 7] was 19.8% and the inhibition at 32 µg/mL ([2]; Staphylococcus aureus, read-out: % inhibition MRSA, 32 µg/mL, duplicate (n = 2) values) was 10%. For the same molecule, the MIC ([2]; Staphylococcus aureus, ATCC 43300, MIC = concentration at which growth inhibited by ≥80%, range 0.25−32 µg/mL, read-out: MIC MRSA) was over 32 µg/mL, the “% inhibition E. coli” value [3, 7] was 9.5% and the inhibition at 32 µg/mL ([3]; Escherichia coli, ATCC25922, read-out: % inhibition E. coli, 32 µg/mL, duplicate (n = 2) values) was 8.1%. The MIC ([3]; Escherichia coli, ATCC25922, ATCC 25922, MIC = concentration at which growth inhibited by ≥80%, read-out: MIC E. coli) was over 32 µg/mL, the “% inhibition A. baumannii” value [4, 7] was 8.5% and the inhibition at 32 µg/mL ([4]; Acinetobacter baumannii, ATCC19606, read-out: % inhibition A. baumannii, 32 µg/mL, duplicate (n = 2) values) was 10.2%. For the same molecule, the MIC ([4]; Acinetobacter baumannii, ATCC19606, ATCC 19606, read-out: MIC A. baumannii) was over 32 µg/mL, the “% inhibition C. albicans” value [5, 7] was 3.3% and the inhibition at 32 µg/mL ([5]; Candida albicans, ATCC90028, read-out: % inhibition C. albicans, 32 µg/mL, duplicate (n = 2) values) was 2.5%. The MIC ([5]; Candida albicans, ATCC90028, ATCC 90028, read-out: MIC C. albicans) was over 32 µg/mL and the “% inhibition C. neoformans” value [6] was 10.4% and 3.8%.
